The values below come from patent publication US20160271263A1 (Novo Nordisk A/S, priority 2010, published 2016).

Numbered stars: 1 amine (or outer) side, 2 acyl side, 3 side chain; on linkers, the order of the positions; unused ones are H or OH. Side chains are listed from the residue outwards. Peptide text beside a SMILES is read from it. * marks the point of attachment. C18 diacid = O=C(O)CCCCCCCCCCCCCCCCC(=O)*; γGlu = O=C(O)[C@H](CCC(=O)[*:2])N[*:1]; AEEA = NCCOCCOCC(=O)O

Chain of glucagon receptor (P47871 26-477): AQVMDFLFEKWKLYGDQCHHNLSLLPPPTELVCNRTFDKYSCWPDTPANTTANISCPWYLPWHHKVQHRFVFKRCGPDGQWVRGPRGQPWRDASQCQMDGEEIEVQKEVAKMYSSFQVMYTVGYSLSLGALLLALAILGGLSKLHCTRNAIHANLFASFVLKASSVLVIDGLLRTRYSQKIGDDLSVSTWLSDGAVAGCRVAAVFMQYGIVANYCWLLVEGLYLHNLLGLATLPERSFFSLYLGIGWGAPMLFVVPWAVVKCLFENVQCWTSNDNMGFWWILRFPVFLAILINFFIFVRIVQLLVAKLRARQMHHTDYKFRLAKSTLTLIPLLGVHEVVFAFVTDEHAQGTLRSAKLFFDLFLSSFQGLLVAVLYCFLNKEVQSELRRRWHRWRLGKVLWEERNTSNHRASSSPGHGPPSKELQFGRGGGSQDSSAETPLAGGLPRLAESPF

This test has as its target glucagon receptor (Homo sapiens, UniProt P47871). Description: cell-based.
Consider `CC(C)C[C@H](NC(=O)[C@H](Cc1ccc(O)cc1)NC(=O)[C@H](CCCCN)NC(=O)[C@H](CO)NC(=O)[C@H](Cc1ccc(O)cc1)NC(=O)[C@H](CC(=O)O)NC(=O)[C@H](CO)NC(=O)[C@@H](NC(=O)[C@H](Cc1ccccc1)NC(=O)[C@@H](NC(=O)CNC(=O)[C@H](CCC(N)=O)NC(=O)[C@H](CO)NC(=O)[C@@H](N)Cc1c[nH]cn1)[C@@H](C)O)[C@@H](C)O)C(=O)N[C@@H](CC(=O)O)C(=O)N[C@@H](CO)C(=O)N[C@@H](CCCNC(=N)N)C(=O)N[C@@H](CCCNC(=N)N)C(=O)N[C@@H](C)C(=O)N[C@@H](CCC(N)=O)C(=O)N[C@@H](CC(=O)O)C(=O)N[C@@H](Cc1ccccc1)C(=O)N[C@H](C(=O)N[C@@H](CCC(N)=O)C(=O)N[C@@H](Cc1c[nH]c2ccccc12)C(=O)N[C@@H](CC(C)C)C(=O)N[C@@H](CC(C)C)C(=O)N[C@@H](CCCCNC(=O)CC[C@H](NC(=O)CC[C@H](NC(=O)COCCOCCNC(=O)COCCOCCNC(=O)CC[C@H](NC(=O)CCCCCCCCCCCCCCCCC(=O)O)C(=O)O)C(=O)O)C(=O)O)C(=O)N[C@H](C(=O)N1CCC[C@H]1C(=O)O)[C@@H](C)O)C(C)C` [Example 82, N^ε28-[(4S)-4-carboxy-4-[[(4S)-4-carboxy-4-[[2-[2-[2-[[2-[2-[2-[[(4S)-4-carboxy-4-(17-carboxyheptadecanoylamino)butanoyl]amino]ethoxy]ethoxy]acetyl]amino]ethoxy]ethoxy]acetyl]amino]butanoyl]amino]butanoyl]-[Leu^27,Lys^28]-Glucagonyl-Pro], for which the EC50 came to 0.128 nM. `CC(C)C[C@H](NC(=O)[C@H](Cc1ccc(O)cc1)NC(=O)[C@H](CCCCN)NC(=O)[C@H](CO)NC(=O)[C@H](Cc1ccc(O)cc1)NC(=O)[C@H](CC(=O)O)NC(=O)[C@H](CO)NC(=O)[C@@H](NC(=O)[C@H](Cc1ccccc1)NC(=O)[C@@H](NC(=O)CNC(=O)[C@H](CCC(N)=O)NC(=O)[C@H](CO)NC(=O)[C@@H](N)Cc1c[nH]cn1)[C@@H](C)O)[C@@H](C)O)C(=O)N[C@@H](CC(=O)O)C(=O)N[C@@H](CO)C(=O)N[C@@H](CCCNC(=N)N)C(=O)N[C@@H](CCCNC(=N)N)C(=O)N[C@@H](C)C(=O)N[C@@H](CCC(N)=O)C(=O)N[C@@H](CC(=O)O)C(=O)N[C@@H](Cc1ccccc1)C(=O)N[C@H](C(=O)N[C@@H](CCC(N)=O)C(=O)N[C@@H](Cc1c[nH]c2ccccc12)C(=O)N[C@@H](CC(C)C)C(=O)N[C@@H](CCCCNC(=O)CC[C@H](NC(=O)CC[C@H](NC(=O)COCCOCCNC(=O)COCCOCCNC(=O)CC[C@H](NC(=O)CCCCCCCCCCCCCCCCC(=O)O)C(=O)O)C(=O)O)C(=O)O)C(=O)N[C@@H](CC(N)=O)C(=O)N1CCC[C@H]1C(=O)O)C(C)C` [Example 85, N^ε27-[(4S)-4-carboxy-4-[[(4S)-4-carboxy-4-[[2-[2-[2-[[2-[2-[2-[[(4S)-4-carboxy-4-(17-carboxyheptadecanoylamino)butanoyl]amino]ethoxy]ethoxy]acetyl]amino]ethoxy]ethoxy]acetyl]amino]butanoyl]amino]butanoyl]-[Lys^27,Pro^29]-Glucagon] came in with a half-maximal effective concentration (EC50) of 1.17 nM. The compound `CC(C)C[C@H](NC(=O)[C@H](Cc1ccc(O)cc1)NC(=O)[C@H](CCCCN)NC(=O)[C@H](CO)NC(=O)[C@H](Cc1ccc(O)cc1)NC(=O)[C@H](CC(=O)O)NC(=O)[C@H](CO)NC(=O)[C@@H](NC(=O)[C@H](Cc1ccccc1)NC(=O)[C@@H](NC(=O)CNC(=O)[C@H](CCC(N)=O)NC(=O)[C@H](CO)NC(=O)[C@@H](N)Cc1c[nH]cn1)[C@@H](C)O)[C@@H](C)O)C(=O)N[C@@H](CC(=O)O)C(=O)N[C@@H](CO)C(=O)N[C@@H](CCCNC(=N)N)C(=O)N[C@@H](CCCNC(=N)N)C(=O)N[C@@H](C)C(=O)N[C@@H](CCC(N)=O)C(=O)N[C@@H](CC(=O)O)C(=O)N[C@@H](Cc1ccccc1)C(=O)N[C@H](C(=O)N[C@@H](CCC(N)=O)C(=O)N[C@@H](Cc1c[nH]c2ccccc12)C(=O)N[C@@H](CC(C)C)C(=O)N[C@@H](CC(C)C)C(=O)N[C@@H](CCCCNC(=O)CC[C@H](NC(=O)CC[C@H](NC(=O)COCCOCCNC(=O)COCCOCCNC(=O)CC[C@H](NC(=O)CCCCCCCCCCCCCCCCC(=O)O)C(=O)O)C(=O)O)C(=O)O)C(=O)N1CCC[C@H]1C(=O)O)C(C)C` [Example 86, N^ε28-[(4S)-4-carboxy-4-[[(4S)-4-carboxy-4-[[2-[2-[2-[[2-[2-[2-[[(4S)-4-carboxy-4-(17-carboxyheptadecanoylamino)butanoyl]amino]ethoxy]ethoxy]acetyl]amino]ethoxy]ethoxy]acetyl]amino]butanoyl]amino]butanoyl]-[Leu^27,Lys^28,Pro^29]-Glucagon] registered an EC50 of 0.189 nM. `CC(C)C[C@H](NC(=O)[C@H](Cc1ccc(O)cc1)NC(=O)[C@H](CCCNC(=N)N)NC(=O)[C@H](CO)NC(=O)[C@H](Cc1ccc(O)cc1)NC(=O)[C@H](CC(=O)O)NC(=O)[C@H](CO)NC(=O)[C@@H](NC(=O)[C@H](Cc1ccccc1)NC(=O)[C@@H](NC(=O)CNC(=O)[C@H](CCC(N)=O)NC(=O)[C@H](CO)NC(=O)[C@@H](N)Cc1c[nH]cn1)[C@@H](C)O)[C@@H](C)O)C(=O)N[C@@H](CC(=O)O)C(=O)N[C@@H](CO)C(=O)N[C@@H](CCCNC(=N)N)C(=O)N[C@@H](CCCNC(=N)N)C(=O)N[C@@H](C)C(=O)N[C@@H](CCC(N)=O)C(=O)N[C@@H](CC(=O)O)C(=O)N[C@@H](Cc1ccccc1)C(=O)N[C@H](C(=O)N[C@@H](CCC(N)=O)C(=O)N[C@@H](Cc1c[nH]c2ccccc12)C(=O)N[C@@H](CC(C)C)C(=O)N[C@@H](CCCCNC(=O)CC[C@H](NC(=O)CC[C@H](NC(=O)COCCOCCNC(=O)COCCOCCNC(=O)CC[C@H](NC(=O)CCCCCCCCCCCCCCCCC(=O)O)C(=O)O)C(=O)O)C(=O)O)C(=O)N[C@@H](CC(N)=O)C(=O)N1CCC[C@H]1C(=O)O)C(C)C` [Example 87, N^ε27-[(4S)-4-carboxy-4-[[(4S)-4-carboxy-4-[[2-[2-[2-[[2-[2-[2-[[(4S)-4-carboxy-4-(17-carboxyheptadecanoylamino)butanoyl]amino]ethoxy]ethoxy]acetyl]amino]ethoxy]ethoxy]acetyl]amino]butanoyl]amino]butanoyl]-[Arg^12,Lys^27,Pro^29]-Glucagon]: the 50% effective concentration (EC50) turned out to be 2.11 nM. On to `CC(C)C[C@H](NC(=O)[C@H](Cc1ccc(O)cc1)NC(=O)[C@H](CCCCN)NC(=O)[C@H](CO)NC(=O)[C@H](Cc1ccc(O)cc1)NC(=O)[C@H](CC(=O)O)NC(=O)[C@H](CO)NC(=O)[C@@H](NC(=O)[C@H](Cc1ccccc1)NC(=O)[C@@H](NC(=O)CNC(=O)[C@H](CCC(N)=O)NC(=O)[C@H](CO)NC(=O)[C@@H](N)Cc1c[nH]cn1)[C@@H](C)O)[C@@H](C)O)C(=O)N[C@@H](CC(=O)O)C(=O)N[C@@H](CO)C(=O)N[C@@H](CCCNC(=N)N)C(=O)N[C@@H](CCCNC(=N)N)C(=O)N[C@@H](C)C(=O)N[C@@H](CCC(N)=O)C(=O)N[C@@H](CCC(=O)O)C(=O)N[C@@H](Cc1ccccc1)C(=O)N[C@H](C(=O)N[C@@H](CCCCNC(=O)CC[C@H](NC(=O)CC[C@H](NC(=O)COCCOCCNC(=O)CC[C@H](NC(=O)CCCCCCCCCCCCCCCCC(=O)O)C(=O)O)C(=O)O)C(=O)O)C(=O)N[C@@H](Cc1c[nH]c2ccccc12)C(=O)N[C@@H](CC(C)C)C(=O)N[C@@H](CC(C)C)C(=O)N[C@@H](CO)C(=O)N[C@H](C(=O)O)[C@@H](C)O)C(C)C` [Example 91, N^ε24-[(4S)-4-carboxy-4-[[(4S)-4-carboxy-4-[[2-[2-[2-[[(4S)-4-carboxy-4-(17-carboxyheptadecanoylamino)butanoyl]amino]ethoxy]ethoxy]acetyl]amino]butanoyl]amino]butanoyl]-[Glu21,Lys24,Leu27,Ser28]-Glucagon], for which it took 0.053 nM to reach a half-maximal effect (EC50). `CC(C)C[C@H](NC(=O)[C@H](Cc1ccc(O)cc1)NC(=O)[C@H](CCCCN)NC(=O)[C@H](CO)NC(=O)[C@H](Cc1ccc(O)cc1)NC(=O)[C@H](CCC(=O)O)NC(=O)[C@H](CO)NC(=O)[C@@H](NC(=O)[C@H](Cc1ccccc1)NC(=O)[C@@H](NC(=O)CNC(=O)[C@H](CCC(N)=O)NC(=O)[C@H](CO)NC(=O)[C@@H](N)Cc1c[nH]cn1)[C@@H](C)O)[C@@H](C)O)C(=O)N[C@@H](CC(=O)O)C(=O)N[C@@H](CO)C(=O)N[C@@H](CCCNC(=N)N)C(=O)N[C@@H](CCCNC(=N)N)C(=O)N[C@@H](C)C(=O)N[C@@H](CCC(N)=O)C(=O)N[C@@H](CC(=O)O)C(=O)N[C@@H](Cc1ccccc1)C(=O)N[C@H](C(=O)N[C@@H](CCCCNC(=O)CC[C@H](NC(=O)CC[C@H](NC(=O)COCCOCCNC(=O)CC[C@H](NC(=O)CCCCCCCCCCCCCCCCC(=O)O)C(=O)O)C(=O)O)C(=O)O)C(=O)N[C@@H](Cc1c[nH]c2ccccc12)C(=O)N[C@@H](CC(C)C)C(=O)N[C@@H](CC(C)C)C(=O)N[C@@H](CO)C(=O)N[C@H](C(=O)O)[C@@H](C)O)C(C)C` [Example 92, N^ε24-[(4S)-4-carboxy-4-[[(4S)-4-carboxy-4-[[2-[2-[2-[[(4S)-4-carboxy-4-(17-carboxyheptadecanoylamino)butanoyl]amino]ethoxy]ethoxy]acetyl]amino]butanoyl]amino]butanoyl]-[Glu^9,Lys^24,Leu^27,Ser^28]-Glucagon] came in with an EC50 of 2.2 nM. Turning to `CC(C)C[C@H](NC(=O)[C@H](Cc1ccc(O)cc1)NC(=O)[C@H](CCCCN)NC(=O)[C@H](CO)NC(=O)[C@H](Cc1ccc(O)cc1)NC(=O)[C@H](CC(=O)O)NC(=O)[C@H](CO)NC(=O)[C@@H](NC(=O)[C@H](Cc1ccccc1)NC(=O)[C@@H](NC(=O)CNC(=O)[C@H](CCC(N)=O)NC(=O)[C@H](CO)NC(=O)[C@@H](N)Cc1c[nH]cn1)[C@@H](C)O)[C@@H](C)O)C(=O)N[C@@H](CC(=O)O)C(=O)N[C@@H](CO)C(=O)N[C@@H](CCCNC(=N)N)C(=O)N[C@@H](CCCNC(=N)N)C(=O)N[C@@H](C)C(=O)N[C@@H](CCC(=O)O)C(=O)N[C@@H](CCC(=O)O)C(=O)N[C@@H](Cc1ccccc1)C(=O)N[C@H](C(=O)N[C@@H](CCCCNC(=O)CC[C@H](NC(=O)CC[C@H](NC(=O)COCCOCCNC(=O)CC[C@H](NC(=O)CCCCCCCCCCCCCCCCC(=O)O)C(=O)O)C(=O)O)C(=O)O)C(=O)N[C@@H](Cc1c[nH]c2ccccc12)C(=O)N[C@@H](CC(C)C)C(=O)N[C@@H](CC(C)C)C(=O)N[C@@H](CO)C(=O)N[C@H](C(=O)O)[C@@H](C)O)C(C)C` [Example 93, N^ε24-[(4S)-4-carboxy-4-[[(4S)-4-carboxy-4-[[2-[2-[2-[[(4S)-4-carboxy-4-(17-carboxyheptadecanoylamino)butanoyl]amino]ethoxy]ethoxy]acetyl]amino]butanoyl]amino]butanoyl]-[Glu^20,Glu^21,Lys^24,Leu^27,Ser^28]-Glucagon] (H-HSQGTFTSDYSKYLDSRRAEEFVK([γGlu-γGlu-AEEA-γGlu-C18 diacid])WLLST-OH), the response was half-maximal at 0.12 nM (EC50).
